Series [1] is described as follows: Hydrogel formation, vial inversion test (critical gel concentration). It counts as physicochemical. Conditions: for Remarks (gel state): vial inversion test; for CGC: triggers GdL. The source says:
(§1) The simplest method to determine whether a suitable hydrogel has formed is to use the vial inversion test. Through visual inspection, a material can be categorised as a solution, viscous solution, partial gel, or solid-like gel. A stable hydrogel needs to be able to hold its weight and/or maintain its shape during this assessment.
(§2) The critical gel concentration (CGC) is defined as the minimum mass of a short peptide required to provide a self-supporting hydrogel per unit volume in the vial inversion test (measured as % w/v).
(§3) Pre-weighed samples of short peptide 4 were prepared in aluminium-covered glass vials and Milli-Q water and 2 equivalents of NaOH (1.0 M) were added to make up concentrations of 1% w/v. The resulting suspensions were vortexed for 5 minutes to provide clear yellow solutions with pH 11.
(§4) To create a high ionic strength environment, 1 equivalent of NaCl was added and the vial was left to stand without disturbance for 3 hours at room temperature. Meanwhile, as an attempt to form a hydrogel by lowering the pH, 2 equivalents of GdL were added to a high pH solution of 4 followed by gentle mixing. These vials were inverted and allowed to stand overnight to confirm the hydrogel formation.
(§5) The formation of hydrogel 4 via the solvent switch method was conducted by dissolving short peptide 4, in an aluminium covered glass vial, with either 50% methanol, ethanol, or dimethyl sulfoxide (DMSO). Respective amounts of Mili-Q water were added to make up concentrations of 1% w/v.
(§6) In addition, gelation time was defined as the time (hours) required for 1% w/v of short peptide 4 to form a hydrogel which can be turned upside down without collapsing.
(§7) Pre-weighed samples of short peptides 10a-17a, 18, and 19 were prepared in glass vials with 10 mm internal diameter, and Milli-Q water was added to make up concentrations of 1% w/v. The resulting suspensions of short peptides 13, 18, and 19 (as ammonium or guanidinium salts) were slowly warmed until all solid had completely dissolved. GdL (1.5 to 2.0 equivalents) was added to the suspension of short peptides 10a-17a, before heat was applied. To create a high ionic strength environment, 1-5 equivalents of NaCl was added to the viscous solution of 10a-17a to make the total volume up to 1 mL, followed by gentle mixing, and the vial was left to stand without disturbance for 3 hours at room temperature. Subsequently, these vials were inverted and allowed to stand overnight to confirm hydrogel formation.

Series [2] in a line: Strain sweep test (SST), linear viscoelastic region. It counts as physicochemical. The conditions noted are these: hydrogels at 1% w/v, SST at 1 Hz, 0.1% to 100% strain. As for the experimental part:
(§8) Initially, 1 mL of hydrogels were prepared from short peptides 11-13 and 15-19 in glass vials at concentration of 1% w/v. These vials were warmed using a heat gun to transform the hydrogel to the solution phase. Subsequently, 560 μL of the resulting solutions were cast onto the rheometer plate. The other plate was lowered to the measuring position ([…]) and the hydrogel was allowed to stand for 3 hours for the gel to form. The FST was conducted at fixed strain of 0.1% and frequency ranging from 10 Hz to 0.01 Hz. Meanwhile, the strain sweep test (SST) was performed at a frequency of 1 Hz using 0.1% strain to 100% strain. The rheology data were shown as the average of three repeats for each data point.
(§9) The mechanical properties of hydrogels 4 (formed via addition of NaCl or GdL) before and after blue light irradiation were also assessed using an Anton Paar MCR 302 rheometer with a 25 mm stainless parallel plate configuration. Prior to the hydrogel formation, 560 μL of solution phase of short peptide 4 at 1% w/v were transferred onto a rheometer plate. Meanwhile, hydrogel 4, which had been exposed to blue light, was warmed using a heat gun, to provide its solution phase. Subsequently, 560 μL of this solution phase was cast onto the rheometer plate. The other plate was lowered to the measuring position ([…]) and the hydrogel was allowed to stand for 3 hours for the gel to form. The frequency sweep test (FST) was conducted at fixed strain of 0.1% and frequency ranging from 10 Hz to 0.01 Hz. Meanwhile, the SST was performed at a frequency of 1 Hz using 0.1% strain to 100% strain. In addition, the temperature sweep test was conducted to obtain transition glass (Tg) using fixed frequency of 1 Hz and fixed strain of 0.1% with temperature ramping from 25° C. to 90° C. The rheology data were shown as the average of three repeats for each data point.
To observe the structural decay in anthranilamide-based cationic hydrogels, the SST was performed by imposing a non-linear strain. SST provides information about the viscoelastic properties of a hydrogel through determination of its linear viscoelastic region (LVER). […] Here, the LVER reported for each hydrogel represents the deviation of storage modulus (G′) from linearity, known as yield point (γy). Yield points have been reported to reflect a point where the rigidity of a hydrogel starts to weaken.

The nature of series [3]: Atomic force microscopy (AFM) of fibers. It counts as physicochemical. Conditions: for fiber diameter: hydrogel, 4× below CGC (17 imaged at 0.10% w/v); for fiber bundle diameter: hydrogel after addition of salt, 4× below CGC. On the procedure: Hydrogels of NO-releasing short peptide 4 (1 drop), at high pH, low pH, and after irradiation, were cast onto a mica substrate. Hydrogels of cationic short peptides 11-13 and 15-19 were prepared at their CGC, 2× below, and 4× below CGC in glass vials. Prior to gelation, one drop of the cationic short peptide solutions was cast onto a mica substrate. Using a glass slide, each droplet was carefully spread and was left to dry overnight before imaging. Imaging was performed using a Bruker Multimode 8 Atomic Force Microscope in Scanasyst Air (PeakForce Tappings) mode, which is based on tapping mode AFM. To prevent damage of soft samples, the imaging parameters were constantly optimized through the force curves that were collected. Bruker Scanasyst-Air probes were used, with a spring constant of 0.4-0.8 N·m^−1 and a tip radius of 2 nm.
To gain some insight on the mechanism of antibacterial action, the released solutions from hydrogel made of primary ammonium 11 were directly cast onto a mica substrate. […] After gently spreading using a glass slide and left to dry overnight, these samples were imaged using a similar manner as describe above.

The subject of series [4] is S. aureus 38. Description: Antibacterial activity of cationic hydrogels, viable count method. The series is classed as cell-based, Staphylococcus aureus. The conditions noted are these: hydrogel at 1% w/v in contact with S. aureus, compared to control. On the procedure: The antibacterial activity of the anthranilamide-based cationic hydrogels 11-13 and 15-19 was investigated in vitro against S. aureus. The antibacterial activity of anthranilamide-based cationic hydrogel 11 was also investigated in vitro against E. coli.
First, a single colony of S. aureus 38 or E. coli K12 was grown in Luria-Bertani (LB) broth medium at 37° C. overnight. The resulting bacteria were harvested, via centrifugation, to obtain a bacteria pellet which was re-suspended in the same volume of LB medium, twice. The optical density (OD) value of the resulting culture was adjusted to 0.1 at 600 nm in LB (10^8 cfu·mL^−1). This bacteria solution was then further adjusted to 3×10^4 cfu mL^−1. (CFU or cfu=colony-forming unit). Bacteria solutions (1 mL), which contain either 10^8 CFUs/mL or 3×10^4 CFUs/mL, were gently added to hydrogel 11 at 1% w/v with total volume of 1 mL. Anthranilamide-based cationic hydrogels 11-13 and 15-19 (1 mL) were prepared at 1% w/v in glass vials as described above. On top of these pre-formed hydrogels, 1 mL of bacteria solution was carefully cast. […] As a negative control, a bacterial solution in the absence of hydrogel was used. After being incubated at 37° C. for 18 hours, 100 μL of bacteria solution in each vial was taken and subjected to serial dilution using phosphate buffer solution (PBS). 20 μL of each dilution were carefully transferred into nutrient agar plates and incubated for another 18 hours. The following day, bacterial growth inhibition was quantified using the viable count method. The experiment was performed twice in triplicate and multiple sample comparison was performed using one-way ANOVA at p<0.05.

A short description of series [5]: Frequency sweep test (FST), rheometer. The series is classed as physicochemical. Conditions: for G′ (modulus storage) / G″ (modulus loss): FST fixed strain 0.1%. As for the experimental part:
The mechanical properties of anthranilamide-based cationic hydrogels were assessed using an Anton Paar MCR 302 rheometer with a 25 mm stainless parallel plate configuration.
as §8, §9
In the FST, samples were measured over a range of oscillation frequencies (0.1-10 rad/s) at fixed strain, temperature, and oscillation amplitude. Higher frequencies simulate fast motion on a short time-scale, while low frequencies simulate slow motion on a long time-scale, or rest. All of the hydrogels made from the anthranilamide-based short cationic peptides, which passed the vial inversion test, were subjected to the FST using a rheometer to precisely assess their mechanical properties.

Series [6] in a line: Hydrogel formation, vial inversion test (critical gel concentration). It counts as physicochemical. The arrangement: key: VS: viscous solution; CG: clear gel. Conditions: vial inversion test.
Description: as §1, §2, §3, §4, §5, §6, §7

Assay in series [7]: as above
The series is classed as physicochemical. On the set-up: key: OG: opaque gel; P: precipitate. Conditions: cationic peptides 10-14; vial inversion test.
Description: as §1, §2, §3, §4, §5, §6, §7

[8] abbreviates: hydrogels of cationic peptides 10-14.
[9] abbreviates: cationic peptides 15-19, heat and NaCl (18, 19: heat and NaCl).
Setting [10] is: hydrogels of cationic peptides 15-19.
Where [11] appears, read: cationic peptides 10-14, heat and NaCl (13: heat and NaCl).

“And” between values parts separate entries of the source, which are not always exact repeats. Identical values can stand only once.

As to `NCCNC(=O)[C@H](Cc1ccccc1)NC(=O)c1ccccc1NC(=O)c1ccc2ccccc2c1` [Compound 10], the “Remarks (gel state)” value in series [1] (cationic peptides 10-14) was “CG → PG”. In series [1] (setting [8]), this compound displayed a pH of 5.5.

Take `N=C(N)NCCCNC(=O)[C@H](Cc1ccccc1)NC(=O)c1ccccc1NC(=O)c1ccc2ccccc2c1` [Compound 14]: the pH in series [1] (setting [8]) was found to be 6.

As to `CN(C)CCCNC(=O)[C@H](Cc1ccccc1)NC(=O)c1ccccc1NC(=O)c1ccc2ccccc2c1.Cl` [Compound 19, (S)-3-(2-(2-(2-naphthamido)benzamido)-3-phenylpropanamido)-N,N-dimethylpropan-1-aminium Chloride], the “LVER (linear viscoelastic region)” value in series [2] is listed as 1.00 ± 0.01%. For the same compound, the fiber diameter in series [3] is reported as 87±6 nm. The compound further displayed a bacterial reduction in series [4] of 3.0 Log10. In series [5] (hydrogels 15-19 at 1% w/v), the “G′/G″ ratio” value worked out at 10.1, the “G′ (modulus storage)” value stood at 1.61 kPa and the “G″ (modulus loss)” value worked out at 0.16 kPa. The same compound yielded a CGC in series [1] (setting [9]) of 0.3 % W/V. The compound also showed a pH in series [1] (setting [10]) of 5. In series [6] (cationic peptides 15-19), the “Remarks (gel state)” value is “CG”.

As for `C[N+](C)(C)CCCNC(=O)[C@H](Cc1ccccc1)NC(=O)c1ccccc1NC(=O)c1ccc2ccccc2c1.[I-]` [Compound 13, (S)-3-(2-(2-(2-naphthamido)benzamido)-3-phenylpropanamido)-N,N,N-trimethylpropan-1-aminium iodide], the “LVER (linear viscoelastic region)” value in series [2] came to 1.10 ± 0.04%. The “Remarks (gel state)” value in series [7] is “OG”. Besides, in series [3], the fiber bundle diameter came to 148±16 nm. Besides, the bacterial reduction in series [4] is on record as 4.1 Log10. In series [5] (hydrogels 11-13 at 1% w/v), the “G′/G″ ratio” value is 10.9, the “G′ (modulus storage)” value amounted to 2.28 kPa and the “G″ (modulus loss)” value amounted to 0.21 kPa. Also, the CGC in series [1] (setting [11]) was determined as 0.2 % w/v. The pH in series [1] (setting [8]) was 6.

Consider `CN(C)CCCNC(=O)[C@H](Cc1ccccc1)NC(=O)c1ccccc1NC(=O)c1ccc2ccccc2c1` [Compound 18, (S)-3-(2-(2-(2-naphthamido)benzamido)-3-phenylpropanamido)-N,N-dimethylpropan-1-aminium Ttrifluoroacetate], for which the “LVER (linear viscoelastic region)” value in series [2] is 0.98 ± 0.02%. Also, the fiber diameter in series [3] worked out at 104±4 nm. Moreover, in series [4], the bacterial reduction was 4.9 Log10. For the same compound, in series [5] (hydrogels 15-19 at 1% w/v), the “G′/G″ ratio” value worked out at 16.5, the “G′ (modulus storage)” value stood at 5.12 kPa and the “G″ (modulus loss)” value stood at 0.31 kPa. In series [1] (setting [9]), this compound yielded a CGC of 0.3 % W/V. Besides, in series [1] (setting [10]), the pH came out at 4. Besides, the “Remarks (gel state)” value in series [6] (cationic peptides 15-19) is on record as “CG”.

As to `CN(C)CCCNC(=O)[C@H](Cc1ccccc1)NC(=O)c1ccc(Br)cc1NC(=O)c1ccc2ccccc2c1` [Compound 17], the “LVER (linear viscoelastic region)” value in series [2] is 0.16% and 0.16 ± 0.01%. Moreover, the fiber diameter in series [3] is on record as 101±6 nm. For the same compound, in series [5] (hydrogels 15-19 at 1% w/v), the “G′/G″ ratio” value is reported as 4.0, the “G′ (modulus storage)” value is recorded as 0.08 kPa and the “G″ (modulus loss)” value was 0.02 kPa. Also, in series [1] (cationic peptides 15-19), the “Remarks (gel state)” value is reported as “OG → PG”. Moreover, the pH in series [1] (setting [10]) was found to be 5.5.

Consider `CN(C)CCCNC(=O)[C@H](Cc1ccccc1)NC(=O)c1ccccc1NC(=O)c1ccc2ccccc2c1` [Compound 12], for which the “LVER (linear viscoelastic region)” value in series [2] was 0.98 ± 0.02%. Moreover, the fiber bundle diameter in series [3] is given as 139±10 nm. The bacterial reduction in series [4] turned out to be 5.1 Log10. In series [5] (hydrogels 11-13 at 1% w/v), the “G′/G″ ratio” value was 15.7, the “G′ (modulus storage)” value came out at 8.63 kPa and the “G″ (modulus loss)” value is recorded as 0.55 kPa. In series [1] (setting [11]), this compound came in with a CGC of 0.3 % w/v. In series [1] (setting [8]), this compound displayed a pH of 5.5. Further, in series [6] (cationic peptides 10-14), the “Remarks (gel state)” value is reported as “CG”.

For the origin of these results see patent publication US20230123497A1, “NOVEL ANTIBACTERIAL HYDROGELS” (NewSouth Innovations Pty Limited, priority 2020, published 2023).
